# Test system: 171881-019-R-J1-PDC tumor spheroid viability
# Assay: Anticancer human tumor 171881-019-R-J1-PDC patient-derived invasive breast carcinoma cell line growth inhibition [PI3K]
# Conditions: spheroids with HUVEC and MSC; for IC50: curve of first compound; for viability, T/C: stronger effect = lower value
# Procedure, shortened: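 Spheroid viability read-out. Co-cultures contained the tumor line plus HUVEC and human MSCs. Each agent was paired with a PI3K inhibitor (inavolisib, alpelisib, duvelisib, copanlisib) across half-log dilutions starting at clinical Cmax, or at 10 microM when Cmax was unknown.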
# [1] = second compound 0.00316 µM, first compound 0.0316 µM
# [2] = second compound 0.00316 µM, first compound 0.1 µM
# [3] = second compound 0.00316 µM, first compound 0.316 µM
# [4] = second compound 0.00316 µM, first compound 1 µM
# [5] = second compound 0.00316 µM, first compound 3.16 µM
# [6] = second compound 0.00316 µM, first compound 10 µM
# [7] = second compound 0.01 µM, first compound 0.0316 µM
# [8] = second compound 0.01 µM, first compound 0.1 µM
# [9] = second compound 0.01 µM, first compound 0.316 µM
# [10] = second compound 0.01 µM, first compound 1 µM
# [11] = second compound 0.01 µM, first compound 3.16 µM
# [12] = second compound 0.01 µM, first compound 10 µM
# [13] = second compound 0.0316 µM, first compound 0.0316 µM
# [14] = second compound 0.0316 µM, first compound 0.1 µM
# [15] = second compound 0.0316 µM, first compound 0.316 µM
# [16] = second compound 0.0316 µM, first compound 1 µM
# [17] = second compound 0.0316 µM, first compound 3.16 µM
# [18] = second compound 0.0316 µM, first compound 10 µM
# [19] = second compound 0.1 µM, first compound 0.0316 µM
# [20] = second compound 0.1 µM, first compound 0.1 µM
# [21] = second compound 0.1 µM, first compound 0.316 µM
# [22] = second compound 0.1 µM, first compound 1 µM
# [23] = second compound 0.1 µM, first compound 3.16 µM
# [24] = second compound 0.1 µM, first compound 10 µM
# [25] = second compound 0.316 µM, first compound 0.0316 µM
# [26] = second compound 0.316 µM, first compound 0.1 µM
# [27] = second compound 0.316 µM, first compound 0.316 µM
# [28] = second compound 0.316 µM, first compound 1 µM
# [29] = second compound 0.316 µM, first compound 3.16 µM
# [30] = second compound 0.316 µM, first compound 10 µM
# [31] = second compound 1 µM, first compound 0.0316 µM
# [32] = second compound 1 µM, first compound 0.1 µM
# [33] = second compound 1 µM, first compound 0.316 µM
# [34] = second compound 1 µM, first compound 1 µM
# [35] = second compound 1 µM, first compound 3.16 µM
# [36] = second compound 1 µM, first compound 10 µM
# 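Further: spheroids exposed to compound for 7 days before viability read.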
# 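Wherever viability, T/C is given: 100% = DMSO vehicle-treated spheroids.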
compound,measurement,setting,value
CNC(=O)c1ccc(N2C(=S)N(c3ccc(C#N)c(C(F)(F)F)c3)C(=O)C2(C)C)cc1F + COc1c(OCCCN2CCOCC2)ccc2c3n(c(=NC(=O)c4cnc(N)nc4)nc12)CCN3,IC50,second compound 0.00316 µM,> 10000 nM
same,IC50,second compound 0.01 µM,< 31.6 nM
same,IC50,second compound 0.0316 µM,< 31.6 nM
same,IC50,second compound 0.1 µM,< 31.6 nM
same,IC50,second compound 0.316 µM,< 31.6 nM
same,IC50,second compound 1 µM,< 31.6 nM
same,"viability, T/C",[1],64%
same,"viability, T/C",[2],77.1%
same,"viability, T/C",[3],68.7%
same,"viability, T/C",[4],80.8%
same,"viability, T/C",[5],62.1%
same,"viability, T/C",[6],61.8%
same,"viability, T/C",[7],46.4%
same,"viability, T/C",[8],48%
same,"viability, T/C",[9],53.4%
same,"viability, T/C",[10],50.3%
same,"viability, T/C",[11],43.5%
same,"viability, T/C",[12],43.5%
same,"viability, T/C",[13],28%
same,"viability, T/C",[14],27.9%
same,"viability, T/C",[15],28%
same,"viability, T/C",[16],24.5%
same,"viability, T/C",[17],25.8%
same,"viability, T/C",[18],21.8%
same,"viability, T/C",[19],9.2%
same,"viability, T/C",[20],7.58%
same,"viability, T/C",[21],7.75%
same,"viability, T/C",[22],8.13%
same,"viability, T/C",[23],8.01%
same,"viability, T/C",[24],7.49%
same,"viability, T/C",[25],2.27%
same,"viability, T/C",[26],1.99%
same,"viability, T/C",[27],2.25%
same,"viability, T/C",[28],2.17%
same,"viability, T/C",[29],2.25%
same,"viability, T/C",[30],3.05%
same,"viability, T/C",[31],1.38%
same,"viability, T/C",[32],1.14%
same,"viability, T/C",[33],1.18%
same,"viability, T/C",[34],1.73%
same,"viability, T/C",[35],1.02%
same,"viability, T/C",[36],1.64%
CC(Cn1ccc(-c2ccc(C#N)c(Cl)c2)n1)NC(=O)c1cc(C(C)O)[nH]n1 (centres undefined) + COc1c(OCCCN2CCOCC2)ccc2c3n(c(=NC(=O)c4cnc(N)nc4)nc12)CCN3,IC50,second compound 0.00316 µM,> 10000 nM
same,IC50,second compound 0.01 µM,< 31.6 nM
same,IC50,second compound 0.0316 µM,< 31.6 nM
same,IC50,second compound 0.1 µM,< 31.6 nM
same,IC50,second compound 0.316 µM,< 31.6 nM
same,IC50,second compound 1 µM,< 31.6 nM
same,"viability, T/C",[1],64.2%
same,"viability, T/C",[2],66.1%
same,"viability, T/C",[3],55%
same,"viability, T/C",[4],62%
same,"viability, T/C",[5],64.5%
same,"viability, T/C",[6],48.1%
same,"viability, T/C",[7],48.6%
same,"viability, T/C",[8],52.4%
same,"viability, T/C",[9],45.4%
same,"viability, T/C",[10],51.1%
same,"viability, T/C",[11],45%
same,"viability, T/C",[12],32.2%
same,"viability, T/C",[13],22.5%
same,"viability, T/C",[14],25.8%
same,"viability, T/C",[15],21.9%
same,"viability, T/C",[16],22.7%
same,"viability, T/C",[17],24.5%
same,"viability, T/C",[18],17.4%
same,"viability, T/C",[19],6.84%
same,"viability, T/C",[20],7.08%
same,"viability, T/C",[21],6.29%
same,"viability, T/C",[22],6.57%
same,"viability, T/C",[23],7.04%
same,"viability, T/C",[24],5.04%
same,"viability, T/C",[25],1.65%
same,"viability, T/C",[26],1.42%
same,"viability, T/C",[27],1.54%
same,"viability, T/C",[28],1.44%
same,"viability, T/C",[29],1.55%
same,"viability, T/C",[30],2.61%
same,"viability, T/C",[31],1.17%
same,"viability, T/C",[32],0.9%
same,"viability, T/C",[33],2.01%
same,"viability, T/C",[34],1.22%
same,"viability, T/C",[35],2.13%
same,"viability, T/C",[36],3.1%
